Consider eight compounds from ChEMBL document CHEMBL5291721, “A preclinical secondary pharmacology resource illuminates target-adverse drug reaction associations of marketed drugs” (Nat Commun, 2023).

For assay [1], the target named is 5-hydroxytryptamine receptor 2A (Homo sapiens, UniProt P28223).
The target of assay [2] is T1, Alpha-1A adrenergic receptor (Homo sapiens, UniProt P35348).
T1 sequence (P35348 whole entry): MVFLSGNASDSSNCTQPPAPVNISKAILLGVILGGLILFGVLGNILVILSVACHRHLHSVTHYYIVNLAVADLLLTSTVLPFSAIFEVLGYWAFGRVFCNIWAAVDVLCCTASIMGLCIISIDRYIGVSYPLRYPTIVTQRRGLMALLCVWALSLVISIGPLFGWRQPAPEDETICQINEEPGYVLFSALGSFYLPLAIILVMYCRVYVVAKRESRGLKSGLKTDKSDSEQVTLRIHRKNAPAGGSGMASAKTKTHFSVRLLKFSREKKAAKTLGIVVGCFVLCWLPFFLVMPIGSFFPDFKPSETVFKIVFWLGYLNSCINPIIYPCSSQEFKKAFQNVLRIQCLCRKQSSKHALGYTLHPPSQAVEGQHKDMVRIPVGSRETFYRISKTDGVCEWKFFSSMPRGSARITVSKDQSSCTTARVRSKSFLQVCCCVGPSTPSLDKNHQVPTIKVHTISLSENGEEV

For assay [3], the target named is T2, Alpha-2A adrenergic receptor (Homo sapiens, UniProt P08913).
T2 sequence (P08913 whole entry): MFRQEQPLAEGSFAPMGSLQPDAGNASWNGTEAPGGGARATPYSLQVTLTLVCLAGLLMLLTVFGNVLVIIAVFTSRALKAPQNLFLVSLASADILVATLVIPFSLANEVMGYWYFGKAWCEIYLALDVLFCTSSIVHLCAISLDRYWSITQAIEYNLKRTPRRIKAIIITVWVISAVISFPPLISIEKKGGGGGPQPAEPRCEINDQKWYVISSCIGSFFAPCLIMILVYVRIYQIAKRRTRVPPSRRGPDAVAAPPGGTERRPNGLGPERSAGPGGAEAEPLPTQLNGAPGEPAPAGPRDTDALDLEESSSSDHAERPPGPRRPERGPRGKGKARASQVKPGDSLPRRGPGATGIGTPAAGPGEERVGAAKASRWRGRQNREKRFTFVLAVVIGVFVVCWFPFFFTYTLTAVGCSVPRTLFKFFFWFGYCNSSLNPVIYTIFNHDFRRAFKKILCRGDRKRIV

Assay [4] concerns the target T3, B1 bradykinin receptor (Homo sapiens, UniProt P46663).
T3 sequence (P46663 whole entry): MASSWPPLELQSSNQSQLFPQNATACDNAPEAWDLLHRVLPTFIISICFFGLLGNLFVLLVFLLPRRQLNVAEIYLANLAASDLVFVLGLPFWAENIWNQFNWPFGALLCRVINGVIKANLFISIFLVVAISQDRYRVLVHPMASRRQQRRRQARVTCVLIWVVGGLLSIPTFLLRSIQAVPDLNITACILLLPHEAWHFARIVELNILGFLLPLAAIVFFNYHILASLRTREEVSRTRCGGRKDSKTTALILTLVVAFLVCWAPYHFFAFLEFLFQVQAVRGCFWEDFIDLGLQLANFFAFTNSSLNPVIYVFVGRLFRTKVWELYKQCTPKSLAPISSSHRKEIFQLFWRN

Assay [5] has as its target D(1A) dopamine receptor (Homo sapiens, UniProt P21728).
The target of assay [6] is Estrogen receptor beta (Homo sapiens, UniProt Q92731).
Sequence of Estrogen receptor beta (Q92731 whole entry): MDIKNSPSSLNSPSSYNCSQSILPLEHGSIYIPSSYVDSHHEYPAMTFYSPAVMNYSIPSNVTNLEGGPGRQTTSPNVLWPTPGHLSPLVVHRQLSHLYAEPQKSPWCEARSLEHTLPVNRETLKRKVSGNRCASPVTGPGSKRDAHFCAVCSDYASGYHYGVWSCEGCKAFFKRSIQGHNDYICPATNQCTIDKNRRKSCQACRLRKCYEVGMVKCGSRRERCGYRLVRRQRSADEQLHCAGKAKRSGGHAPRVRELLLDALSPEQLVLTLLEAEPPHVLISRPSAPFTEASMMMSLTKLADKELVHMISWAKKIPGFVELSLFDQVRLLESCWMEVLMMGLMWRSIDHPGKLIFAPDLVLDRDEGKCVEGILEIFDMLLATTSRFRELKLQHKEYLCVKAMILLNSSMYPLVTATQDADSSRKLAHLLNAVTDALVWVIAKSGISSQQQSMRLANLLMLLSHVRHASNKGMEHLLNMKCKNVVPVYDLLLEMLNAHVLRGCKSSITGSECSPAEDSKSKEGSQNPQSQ
Assay [7] deals with T4, Muscarinic acetylcholine receptor M2 (Homo sapiens, UniProt P08172).
T4 sequence (P08172 whole entry): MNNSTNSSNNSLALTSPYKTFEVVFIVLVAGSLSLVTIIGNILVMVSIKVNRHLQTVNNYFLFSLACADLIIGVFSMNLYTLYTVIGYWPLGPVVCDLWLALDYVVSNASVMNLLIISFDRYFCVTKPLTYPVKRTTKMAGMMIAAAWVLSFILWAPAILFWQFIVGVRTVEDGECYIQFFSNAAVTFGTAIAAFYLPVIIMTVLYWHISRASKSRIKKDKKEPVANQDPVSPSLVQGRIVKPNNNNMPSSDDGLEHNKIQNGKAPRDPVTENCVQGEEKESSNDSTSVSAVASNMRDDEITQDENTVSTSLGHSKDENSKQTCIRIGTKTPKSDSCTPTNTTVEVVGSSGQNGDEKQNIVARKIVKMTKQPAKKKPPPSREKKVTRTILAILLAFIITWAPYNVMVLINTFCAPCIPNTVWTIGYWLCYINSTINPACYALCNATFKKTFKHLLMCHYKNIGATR

Each structure is given as a SMILES string.
Further: assay procedure not described here.

Sequence of D(1A) dopamine receptor (P21728 whole entry): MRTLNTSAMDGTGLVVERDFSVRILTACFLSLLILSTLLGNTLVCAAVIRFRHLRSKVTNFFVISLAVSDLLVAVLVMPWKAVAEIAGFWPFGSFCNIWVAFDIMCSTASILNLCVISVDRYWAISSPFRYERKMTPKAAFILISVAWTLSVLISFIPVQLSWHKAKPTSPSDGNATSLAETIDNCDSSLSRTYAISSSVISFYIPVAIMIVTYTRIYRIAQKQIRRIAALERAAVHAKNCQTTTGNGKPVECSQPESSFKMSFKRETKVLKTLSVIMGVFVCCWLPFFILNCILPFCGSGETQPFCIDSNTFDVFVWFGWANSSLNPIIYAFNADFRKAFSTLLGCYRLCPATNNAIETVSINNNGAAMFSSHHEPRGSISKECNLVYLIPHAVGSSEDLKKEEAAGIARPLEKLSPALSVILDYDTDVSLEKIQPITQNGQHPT
Sequence of 5-hydroxytryptamine receptor 2A (P28223 whole entry): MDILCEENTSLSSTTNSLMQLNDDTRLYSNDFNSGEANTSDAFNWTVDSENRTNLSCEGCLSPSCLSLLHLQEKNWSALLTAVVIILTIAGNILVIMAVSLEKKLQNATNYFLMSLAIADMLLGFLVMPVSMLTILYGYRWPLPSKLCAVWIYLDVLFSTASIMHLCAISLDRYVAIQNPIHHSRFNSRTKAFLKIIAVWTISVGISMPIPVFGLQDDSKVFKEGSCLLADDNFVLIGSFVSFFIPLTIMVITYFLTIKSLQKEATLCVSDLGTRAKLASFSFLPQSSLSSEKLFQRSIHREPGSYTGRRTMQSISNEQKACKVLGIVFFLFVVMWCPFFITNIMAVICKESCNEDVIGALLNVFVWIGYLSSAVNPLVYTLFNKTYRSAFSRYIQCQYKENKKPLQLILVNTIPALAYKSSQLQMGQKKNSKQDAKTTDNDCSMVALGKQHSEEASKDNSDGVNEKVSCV

Consider `O=C(O[C@H]1C[N+]2(CCCOc3ccccc3)CCC1CC2)C(O)(c1cccs1)c1cccs1` [ACLIDINIUM BROMIDE], for which the concentration at half-maximal activity (AC50) (commonly the concentration giving half of the maximal activity seen) in assay [1] was more than 10 µM; in assay [2] it was 5.1 µM; in assay [3], 2.27 µM; in assay [4] it was more than 30 µM; in assay [5], more than 10 µM.
Turning to `CC(NC(C)(C)C)C(=O)c1cccc(Cl)c1` (stereo not given) [BUPROPION], the AC50 in assay [2] is more than 10 µM; in assay [3], more than 10 µM; in assay [6], more than 30 µM; in assay [4] it was more than 30 µM; in assay [5], more than 10 µM; in assay [7] it was more than 10 µM.
Take `O=C1CN=C(c2ccccc2Cl)c2cc([N+](=O)[O-])ccc2N1` [CLONAZEPAM]: the half-maximal activity concentration (AC50) was more than 10 µM in assay [2]; more than 10 µM in assay [3]; more than 30 µM in assay [6]; more than 30 µM in assay [4]; more than 10 µM in assay [5]; more than 10 µM in assay [7].
`Cc1ccc(-c2ncc(Cl)cc2-c2ccc(S(C)(=O)=O)cc2)cn1` [ETORICOXIB]: the AC50 in assay [1] was more than 10 µM; in assay [2], more than 10 µM; in assay [3] it was more than 10 µM; in assay [6], more than 30 µM; in assay [4] it was more than 30 µM; in assay [5], more than 10 µM. In assay [7], this compound had a half-maximal activity concentration (AC50) of more than 10 µM.
Consider `CCOC(=O)C1=C(C)NC(C)=C(C(=O)OC)C1c1cccc(Cl)c1Cl` (stereo not given) [FELODIPINE], for which the AC50 is more than 10 µM in assay [2]; more than 10 µM in assay [3]; more than 30 µM in assay [6]; more than 30 µM in assay [4]; more than 10 µM in assay [5]; more than 10 µM in assay [7].
`CN1C(=O)CN=C(c2ccccc2F)c2cc([N+](=O)[O-])ccc21` [FLUNITRAZEPAM]: the AC50 is more than 10 µM in assay [1]; more than 10 µM in assay [2]; more than 10 µM in assay [3]; more than 30 µM in assay [6]; more than 30 µM in assay [4]; more than 10 µM in assay [5]. For the same compound, the AC50 in assay [7] is more than 10 µM.
For the compound `CN1C2CCCC1CC(NC(=O)c1nn(C)c3ccccc13)C2` (stereo not given) [GRANISETRON], the AC50 in assay [2] was more than 10 µM; in assay [3] it was more than 10 µM; in assay [6], more than 30 µM; in assay [4], more than 30 µM; in assay [5], more than 10 µM; in assay [7], more than 10 µM.
As for `COc1ccc2c3c1O[C@H]1C(=O)CC[C@H]4[C@@H](C2)N(C)CC[C@]314` [HYDROCODONE], the AC50 in assay [1] was more than 10 µM; in assay [2], more than 10 µM; in assay [3] it was more than 10 µM; in assay [6] it was more than 30 µM; in assay [4], more than 30 µM; in assay [5] it was more than 10 µM. In addition, the AC50 in assay [7] was more than 10 µM.
